Test results: patent publication US20230023092A1, “TREATMENT OF DEPRESSION AND OTHER VARIOUS DISORDERS WITH PSILOCYBIN” (COMPASS […], priority 2019, published 2023)

Tested on: healthy subjects
Experiment: Five-Dimensional Altered States of Consciousness (5D-ASC) questionnaire
Format: in vivo, human
Conditions: for 5D-ASC Anxiety, Mean / 5D-ASC Audio-visual synaesthesia, Mean / 5D-ASC Auditory alteration, Mean / 5D-ASC Blissful state, Mean / 5D-ASC Changed meaning of percepts, Mean / 5D-ASC Complex imagery, Mean / 5D-ASC Disembodiment, Mean / 5D-ASC Dread of ego dissolution, Mean / 5D-ASC Elementary imagery, Mean / 5D-ASC Experience of unity, Mean / 5D-ASC Impaired control and cognition, Mean / 5D-ASC Insightfulness, Mean / 5D-ASC Oceanic boundlessness, Mean / 5D-ASC Spiritual experience, Mean / 5D-ASC Vigilance reduction, Mean / 5D-ASC Visual restructuralisation, Mean: Post-Treatment Day 0, LS mean; for 5D-ASC Anxiety, Mean difference / 5D-ASC Audio-visual synaesthesia, Mean difference / 5D-ASC Auditory alteration, Mean difference / 5D-ASC Blissful state, Mean difference / 5D-ASC Changed meaning of percepts, Mean difference / 5D-ASC Complex imagery, Mean difference / 5D-ASC Disembodiment, Mean difference / 5D-ASC Dread of ego dissolution, Mean difference / 5D-ASC Elementary imagery, Mean difference / 5D-ASC Experience of unity, Mean difference / 5D-ASC Impaired control and cognition, Mean difference / 5D-ASC Insightfulness, Mean difference / 5D-ASC Oceanic boundlessness, Mean difference / 5D-ASC Spiritual experience, Mean difference / 5D-ASC Vigilance reduction, Mean difference / 5D-ASC Visual restructuralisation, Mean difference: Post-Treatment Day 0
From the text: In some embodiments, the Five Dimension Altered States of Consciousness questionnaire (5D-ASC) is utilized to evaluate the safety and/or efficacy of psilocybin. […] The 5 dimensions include oceanic boundlessness, anxious ego dissolution, visionary restructuralization, auditory alterations and reduction of vigilance.

CN(C)CCc1c[nH]c2cccc(OP(=O)(O)O)c12 [Psilocybin, psilocybin]
5D-ASC Anxiety, Mean (Psilocybin 10 mg): 15.7 | 5D-ASC Audio-visual synaesthesia, Mean (Psilocybin 10 mg): 74.7 | 5D-ASC Auditory alteration, Mean (Psilocybin 10 mg): 20.3 | 5D-ASC Blissful state, Mean (Psilocybin 10 mg): 59.1 | 5D-ASC Changed meaning of percepts, Mean (Psilocybin 10 mg): 46.6 | 5D-ASC Complex imagery, Mean (Psilocybin 10 mg): 53.0 | 5D-ASC Disembodiment, Mean (Psilocybin 10 mg): 52.7 | 5D-ASC Dread of ego dissolution, Mean (Psilocybin 10 mg): 21.7 | 5D-ASC Elementary imagery, Mean (Psilocybin 10 mg): 76.5 | 5D-ASC Experience of unity, Mean (Psilocybin 10 mg): 54.4 | 5D-ASC Impaired control and cognition, Mean (Psilocybin 10 mg): 27.9 | 5D-ASC Insightfulness, Mean (Psilocybin 10 mg): 53.9 | 5D-ASC Oceanic boundlessness, Mean (Psilocybin 10 mg): 55.7 | 5D-ASC Spiritual experience, Mean (Psilocybin 10 mg): 48.7 | 5D-ASC Vigilance reduction, Mean (Psilocybin 10 mg): 35.3 | 5D-ASC Visual restructuralisation, Mean (Psilocybin 10 mg): 59.1 | 5D-ASC Anxiety, Mean difference (Psilocybin 10 mg-Placebo): 14.6 | 5D-ASC Audio-visual synaesthesia, Mean difference (Psilocybin 10 mg-Placebo): 66.6 | 5D-ASC Auditory alteration, Mean difference (Psilocybin 10 mg-Placebo): 18.6 | 5D-ASC Blissful state, Mean difference (Psilocybin 10 mg-Placebo): 50.9 | 5D-ASC Changed meaning of percepts, Mean difference (Psilocybin 10 mg-Placebo): 44.4 | 5D-ASC Complex imagery, Mean difference (Psilocybin 10 mg-Placebo): 48.6 | 5D-ASC Disembodiment, Mean difference (Psilocybin 10 mg-Placebo): 45.8 | 5D-ASC Dread of ego dissolution, Mean difference (Psilocybin 10 mg-Placebo): 20.5 | 5D-ASC Elementary imagery, Mean difference (Psilocybin 10 mg-Placebo): 63.6 | 5D-ASC Experience of unity, Mean difference (Psilocybin 10 mg-Placebo): 47.1 | 5D-ASC Impaired control and cognition, Mean difference (Psilocybin 10 mg-Placebo): 26.2 | 5D-ASC Insightfulness, Mean difference (Psilocybin 10 mg-Placebo): 47.6 | 5D-ASC Oceanic boundlessness, Mean difference (Psilocybin 10 mg-Placebo): 47.7 | 5D-ASC Spiritual experience, Mean difference (Psilocybin 10 mg-Placebo): 44.6 | 5D-ASC Vigilance reduction, Mean difference (Psilocybin 10 mg-Placebo): 20.0 | 5D-ASC Visual restructuralisation, Mean difference (Psilocybin 10 mg-Placebo): 52.6 | 5D-ASC Anxiety, Mean (Psilocybin 25 mg): 32.4 | 5D-ASC Audio-visual synaesthesia, Mean (Psilocybin 25 mg): 75.4 | 5D-ASC Auditory alteration, Mean (Psilocybin 25 mg): 30.7 | 5D-ASC Blissful state, Mean (Psilocybin 25 mg): 61.9 | 5D-ASC Changed meaning of percepts, Mean (Psilocybin 25 mg): 46.1 | 5D-ASC Complex imagery, Mean (Psilocybin 25 mg): 64.9 | 5D-ASC Disembodiment, Mean (Psilocybin 25 mg): 53.8 | 5D-ASC Dread of ego dissolution, Mean (Psilocybin 25 mg): 31.9 | 5D-ASC Elementary imagery, Mean (Psilocybin 25 mg): 76.9 | 5D-ASC Experience of unity, Mean (Psilocybin 25 mg): 60.9 | 5D-ASC Impaired control and cognition, Mean (Psilocybin 25 mg): 32.7 | 5D-ASC Insightfulness, Mean (Psilocybin 25 mg): 64.4 | 5D-ASC Oceanic boundlessness, Mean (Psilocybin 25 mg): 62.9 | 5D-ASC Spiritual experience, Mean (Psilocybin 25 mg): 57.9 | 5D-ASC Vigilance reduction, Mean (Psilocybin 25 mg): 45.7 | 5D-ASC Visual restructuralisation, Mean (Psilocybin 25 mg): 65.2 | 5D-ASC Anxiety, Mean difference (Psilocybin 25 mg-10 mg): 16.7 | 5D-ASC Audio-visual synaesthesia, Mean difference (Psilocybin 25 mg-10 mg): 0.7 | 5D-ASC Auditory alteration, Mean difference (Psilocybin 25 mg-10 mg): 10.5 | 5D-ASC Blissful state, Mean difference (Psilocybin 25 mg-10 mg): 2.8 | 5D-ASC Changed meaning of percepts, Mean difference (Psilocybin 25 mg-10 mg): −0.5 | 5D-ASC Complex imagery, Mean difference (Psilocybin 25 mg-10 mg): 11.9 | 5D-ASC Disembodiment, Mean difference (Psilocybin 25 mg-10 mg): 1.1 | 5D-ASC Dread of ego dissolution, Mean difference (Psilocybin 25 mg-10 mg): 10.1 | 5D-ASC Elementary imagery, Mean difference (Psilocybin 25 mg-10 mg): 0.4 | 5D-ASC Experience of unity, Mean difference (Psilocybin 25 mg-10 mg): 6.5 | 5D-ASC Impaired control and cognition, Mean difference (Psilocybin 25 mg-10 mg): 4.7 | 5D-ASC Insightfulness, Mean difference (Psilocybin 25 mg-10 mg): 10.5 | 5D-ASC Oceanic boundlessness, Mean difference (Psilocybin 25 mg-10 mg): 7.2 | 5D-ASC Spiritual experience, Mean difference (Psilocybin 25 mg-10 mg): 9.2 | 5D-ASC Vigilance reduction, Mean difference (Psilocybin 25 mg-10 mg): 10.3 | 5D-ASC Visual restructuralisation, Mean difference (Psilocybin 25 mg-10 mg): 6.1 | 5D-ASC Anxiety, Mean difference (Psilocybin 25 mg-Placebo): 31.3
